Measured values taken from US20050119288A1, “Dosing schedule for a novel anticancer agent” (Pfizer Inc, priority 2003, published 2005).
Marks after values point to notes of the source that are not given here.

Key:
[1] = Body weight and tolerability, SK-OV-3 study; type: in vivo, mice; conditions: PO
Description: SK-OV-3 cells obtained from ATCC (Rockville, Md.) were grown in McCoy's medium containing 10% fetal bovine serum and pen/strep. Exponentially growing cells were harvested and inoculated SC (5 million cells/animal) into female athymic mice. The tumor measurements and body weight changes were obtained on days 1, 3, 6, 10, 13 and 18. Tumor volume was calculated by the following formula: Tumor volume (mm^3)═(W×W)/2×L (L=length & W=width). Blood samples (˜50 μl) were isolated at 0.5, 1, 2, 4 and 8 hrs after dosing on day 18 for PK-analysis. Tumors were isolated at 0.5 hr post-dosing on day 18 for PD-analysis by ELISA. The p-erbB2 reduction, tumor volume and body weight changes in control and test compound treated animals are shown below in Table 2.

[2] = system: p-erbB2 (the phosphorylated form of erbB2 receptor); experiment: p-erbB2 reduction in FRE/erbB2 tumors; type: in vivo, human
From the text: (§1) An objective of the pre-clinical investigations was to determine whether the Cmax or area under the curve (AUC) of the test compound is critical for the anti-tumor efficacy. An additional goal was to establish a pharmacokinetics/pharmacodynamics (PK/PD) relationship in the FRE/erbB2 tumor model. The FRE/erbB2 is an engineered murine tumor model, which over-expresses human erbB2 with a trans-membrane mutation.

[3] = molecular target: erbB2 receptor autophosphorylation (Homo sapiens, UniProt P04626); experiment: p-erbB2 reduction in BT-474 tumors by ELISA; type: in vivo; conditions: 0.5 hr post-dosing on day 22; for inhibition in vivo at 30 mg/kg / inhibition in vivo at 50 mg/kg: BT-474, po, 0.5 h; for % p-erbB2 reduction: PO
Chain of erbB2 receptor autophosphorylation (P04626 23-1255): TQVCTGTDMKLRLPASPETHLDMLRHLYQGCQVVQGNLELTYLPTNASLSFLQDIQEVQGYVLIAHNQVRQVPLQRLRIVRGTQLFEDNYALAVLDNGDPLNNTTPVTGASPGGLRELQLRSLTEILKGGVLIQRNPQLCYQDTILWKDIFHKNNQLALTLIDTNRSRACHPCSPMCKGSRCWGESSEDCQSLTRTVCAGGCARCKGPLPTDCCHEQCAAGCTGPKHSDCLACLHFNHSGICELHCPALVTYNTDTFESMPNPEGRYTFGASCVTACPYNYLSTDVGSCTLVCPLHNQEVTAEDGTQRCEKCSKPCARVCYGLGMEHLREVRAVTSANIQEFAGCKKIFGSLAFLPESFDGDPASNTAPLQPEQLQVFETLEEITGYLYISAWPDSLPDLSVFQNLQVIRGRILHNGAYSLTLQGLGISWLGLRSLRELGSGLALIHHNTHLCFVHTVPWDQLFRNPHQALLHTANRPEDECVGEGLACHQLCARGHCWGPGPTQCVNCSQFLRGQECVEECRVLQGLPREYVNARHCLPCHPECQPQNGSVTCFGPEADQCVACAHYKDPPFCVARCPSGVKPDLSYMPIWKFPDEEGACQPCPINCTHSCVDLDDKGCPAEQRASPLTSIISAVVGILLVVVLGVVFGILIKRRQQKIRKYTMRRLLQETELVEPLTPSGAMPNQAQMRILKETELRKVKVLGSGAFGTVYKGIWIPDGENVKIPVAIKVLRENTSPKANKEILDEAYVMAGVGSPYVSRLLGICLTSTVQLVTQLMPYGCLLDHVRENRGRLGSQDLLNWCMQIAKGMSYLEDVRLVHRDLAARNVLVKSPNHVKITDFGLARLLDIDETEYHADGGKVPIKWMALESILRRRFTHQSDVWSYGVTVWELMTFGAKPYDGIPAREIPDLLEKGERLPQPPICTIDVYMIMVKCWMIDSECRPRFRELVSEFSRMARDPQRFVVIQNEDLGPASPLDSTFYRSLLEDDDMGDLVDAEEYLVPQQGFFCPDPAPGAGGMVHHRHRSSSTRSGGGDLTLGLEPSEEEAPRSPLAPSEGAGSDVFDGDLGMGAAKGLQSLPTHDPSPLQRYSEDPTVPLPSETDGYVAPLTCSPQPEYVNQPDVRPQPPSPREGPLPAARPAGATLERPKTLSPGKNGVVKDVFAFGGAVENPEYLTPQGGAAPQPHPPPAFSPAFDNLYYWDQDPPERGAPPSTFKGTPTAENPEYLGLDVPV
Description: (§2) Exponentially growing BT-474 cells (RPMI 1640 with 10 mM HEPES, 10% FBS, and pen/strep [Gibco]) were harvested and inoculated SC (5 million cells/animal) into female athymic mice. Trochar pieces of BT-474 tumors were then implanted into the right flank of animals. BT-474 tumor bearing mice (50-320 mm^3 in size, N=40) were randomized in 7 groups consisting 5-6 animals each. Animals were treated with vehicle (PO, BID) or the test compound (PO, QD or BID) as described in Table 4. The tumor measurements and body weight changes were obtained on days 1, 6, 11, 15 and 22. Tumor volume was calculated by the following formula: Tumor volume (mm^3)═(W×W)/2×L (L=length & W=width). Blood samples (˜50 μl) were isolated at 0.5, 1, 2, 4 and 8 hrs after dosing on day 22 for PK-analysis. Tumors were isolated at 0.5 hr post-dosing on day 22 for PD-analysis by ELISA.

[4] = Body weight and tolerability, BT-474 study; type: in vivo, mice; conditions: PO
Description: as §2

FRE/erbB2 tumors = experiment: FRE/erbB2 tumor growth in athymic mice; type: in vivo, murine; conditions: for % GI (% Growth Inhibition): day 7
From the text: The in vivo anti-tumor activity of the compounds for use in the methods of the present invention can be determined by the amount of inhibition of tumor growth by a test compound relative to a control. The tumor growth inhibitory effects of various compounds can be measured according to the method of Corbett T. H., et al., “Tumor Induction Relationships in Development of Transplantable Cancers of the Colon in Mice for Chemotherapy Assays, with a Note on Carcinogen Structure”, Cancer Res., 35, 2434-2439 (1975) and Corbett T. H., et al., “A Mouse Colon-tumor Model for Experimental Therapy”, Cancer Chemother. Rep. (Part 2)”, 5, 169-186 (1975), with slight modifications. Tumors can be induced in the left flank of mice by subcutaneous (sc) injection of 1-5 million log phase cultured tumor cells suspended in 0.1 ml RPMI 1640 medium. After sufficient time has elapsed for the tumors to become palpable (˜100-150 mm^3 in size/5-6 mm in diameter) the test animals (athymic female mice) are treated with test compound (formulated at a concentration of 10 to 15 mg/ml in 5 Gelucire or 0.5% methyl cellulose) by the intravenous (iv) or oral (po) route of administration once or twice daily for 7 to 29 consecutive days. In order to determine an anti-tumor effect, the tumor is measured in millimeters with a Vernier caliper across two diameters and the tumor size (mm^3) is calculated using the formula: Tumor size (mm^3)=(W×W)/2×L (L=length and W=width), according to the methods of Geran, R. I., et al. “Protocols for Screening Chemical Agents and Natural Products Against Animal Tumors and Other Biological Systems”, Third Edition, Cancer Chemother. Rep., 3, 1-104 (1972). Results are expressed as percent inhibition, according to the formula: Inhibition Growth (%)=[100-{(% Growth of Treated/% Growth of Control)×100}]. The flank site of tumor implantation provides reproducible dose/response effects for a variety of chemotherapeutic agents, and the method of measurement (tumor diameter) is a reliable method for assessing tumor growth rates.
as §1

[5] = BID, 30 mg/kg (Total Daily Dose = 60 mg/kg)

COCC(=O)NC/C=C/c1ccc2ncnc(Nc3ccc(Oc4ccc(C)nc4)c(C)c3)c2c1 [Test Compound, E-2-Methoxy-N-(3-{4-(3-methyl-4-(6-methyl-pyridin-3-yloxy)-phenylamino)-quinazolin-6-yl}-allyl)-acetamide]
average body weight Day 1 ([1]; BID 25 mg/kg): 24 g | average body weight Day 18 ([1]; BID 25 mg/kg): 26 g | average body weight Day 1 ([1]; BID 50 mg/kg): 24 g | average body weight Day 18 ([1]; BID 50 mg/kg): 25 g | average body weight Day 1 ([1]; BID 100 mg/kg): 23 g | average body weight Day 18 ([1]; BID 100 mg/kg): 23 g | average body weight Day 1 ([1]; QD 50 mg/kg): 23 g | average body weight Day 18 ([1]; QD 50 mg/kg): 24 g | average body weight Day 1 ([1]; QD 100 mg/kg): 23 g | average body weight Day 18 ([1]; QD 100 mg/kg): 25 g | average body weight Day 1 ([1]; QD 200 mg/kg): 23 g | average body weight Day 18 ([1]; QD 200 mg/kg): 24 g | tolerability, body weight loss or animal mortality ([1]; QD or BID, 18 days): well tolerated and there was no body weight loss or animal mortality | % p-erbB2 reduction ([2]; 1.4 mg/kg IV, QD, 15 min/day): 48% | % p-erbB2 reduction ([2]; 10.7 mg/kg IV, 4 hr/day): 53% | % p-erbB2 reduction ([2]; 25 mg/kg PO, QD, termination of 7 day study): 34% | p-erbB2 reduction ([2]; span over the IV groups 15 min/day and 4 hr/day): 48-53% | inhibition in vivo at 30 mg/kg [3, 5]: 26% | inhibition in vivo at 50 mg/kg ([3]; BID, 50 mg/kg (Total Daily Dose = 100 mg/kg)): ~75% | inhibition in vivo at 30 mg/kg ([3]; QD, 30 mg/kg): 57% | inhibition in vivo at 50 mg/kg ([3]; QD, 50 mg/kg): ~75% | % p-erbB2 reduction ([3]; BID, 15 mg/kg (Total Daily Dose = 30 mg/kg)): below the limit of detection | % p-erbB2 reduction [3, 5]: 26% | % p-erbB2 reduction ([3]; QD, 15 mg/kg, 15 mg/kg): below the limit of detection | average body weight Day 1 ([4]; BID 50 mg/kg): 24 g | average body weight Day 1 ([4]; BID, 15 mg/kg): 24 g | average body weight Day 22 ([4]; BID, 15 mg/kg): 29 g | average body weight Day 1 ([4]; BID, 30 mg/kg): 26 g | average body weight Day 22 ([4]; BID, 30 mg/kg): 30 g | average body weight Day 22 ([4]; BID, 50 mg/kg): 28 g | average body weight Day 1 ([4]; QD 50 mg/kg): 25 g | average body weight Day 1 ([4]; QD, 15 mg/kg): 25 g | average body weight Day 22 ([4]; QD, 15 mg/kg): 29 g | average body weight Day 1 ([4]; QD, 30 mg/kg): 23 g | average body weight Day 22 ([4]; QD, 30 mg/kg): 27 g | average body weight Day 22 ([4]; QD, 50 mg/kg): 29 g | tolerability, body weight loss or animal mortality ([4]; QD or BID, 22 days): well tolerated and there was no body weight loss or animal mortality | Tumor vol. Day 1 (Mean ± SE) (FRE/erbB2 tumors; 1.4 mg/kg IV, QD, 15 min/day): 121 ± 24 mm^3 | Tumor vol. Day 7 (Mean ± SE) (FRE/erbB2 tumors; 1.4 mg/kg IV, QD, 15 min/day): 749 ± 178 mm^3 | % GI (% Growth Inhibition) (FRE/erbB2 tumors; 1.4 mg/kg IV, QD, 15 min/day): 34% | % GI (% Growth Inhibition) (FRE/erbB2 tumors; 1.4 mg/kg IV, QD, 15 min/day, listed as test compound): approximately 34% | Tumor vol. Day 1 (Mean ± SE) (FRE/erbB2 tumors; 10.7 mg/kg IV, 4 hr/day): 117 ± 23 mm^3 | Tumor vol. Day 7 (Mean ± SE) (FRE/erbB2 tumors; 10.7 mg/kg IV, 4 hr/day): 273 ± 81 mm^3 | % GI (% Growth Inhibition) (FRE/erbB2 tumors; 10.7 mg/kg IV, 4 hr/day): 76% | Tumor vol. Day 1 (Mean ± SE) (FRE/erbB2 tumors; 25 mg/kg PO, QD): 113 ± 18 mm^3 | Tumor vol. Day 7 (Mean ± SE) (FRE/erbB2 tumors; 25 mg/kg PO, QD): 531 ± 101 mm^3 | % GI (% Growth Inhibition) (FRE/erbB2 tumors; 25 mg/kg PO, QD, compare to Vehicle (IV) group): 54* % | % GI (% Growth Inhibition) (FRE/erbB2 tumors; 25 mg/kg PO, QD, compare to Vehicle (IV) group, listed as test compound): Approximately 54% | FRE tumor volume in treated mice relative to control (FRE/erbB2 tumors; 25 mg/kg orally once a day, seven days of treatment (FIG. 1)): about half of the control | tumor volume increase relative to vehicle control (FRE/erbB2 tumors; about 10 mg/kg IV for seven days over a four hour period each day (FIG. 2)): less than 24% | tumor volume increase relative to vehicle control (FRE/erbB2 tumors; rapid infusion of about 1.4 mg/kg daily over about 15 min/day (FIG. 2)): less than 66%
